Measured values from patent US20050215567A1, “1-[2H-1-benzopyran-2-one-8-yl]-piperazine derivatives for the treatment of pain” (SOLVAY PHARMACEUTICALS B.V., priority 2004, published 2005).
Entries after “also recorded” stand apart in the source; their conditions may differ.

Key:
hot plate latency = assay: Hot plate test (acute pain model); format: in vivo, mice; conditions: for Latency of animal to remove itself from the hotplate seconds ± STDerr: 30 minutes after administration; for analgesic effect in the hot plate test (in words): i.p., morphine 7.5 mg/kg, compound 1 0.1 mg/kg, sumatriptan 10 mg/kg
Experimental: Hot plate test in mouse or rat according to Eddy and Leimbach (J. Pharmacol. Exp. Ther. 1953, 107: 385-393): Mice or rats are placed onto a hot metal plate maintained at 54° C. for mice or 52° C. for rats surrounded by a Plexiglas cylinder (Height: 13 cm; Diameter: 19 cm). The latency to the first foot-lick is measured (maximum: 30 seconds).
Compound 1 and other compounds were tested on the hotplate 30 minutes after intraperitoneal administration. A description of the method is given above.

[1] = Sedative effects after oral dosing; format: in vivo; conditions: dosages of up to 100 mg/kg p.o.
[2] = test system: acetic acid induced writhing; assay: Acetic acid writhing test (acute pain model); format: in vivo, mice; conditions: Mus musculus, po
Experimental: Phenylbenzoquinone and acetic writhing tests in mice follow the methods described by Hendershot et al (J. Pharmacol. Exp. Ther. 1959, 125: 237-240): Mice are injected with phenylbenzoquinone (PBQ) (1.25 mg/kg ip.) or acetic acid (0.5% ip.). This treatment induces a recognizable writhing response in control animals. The number of writhes is counted for 10 minutes beginning 5 minutes after injection of PBQ or acetic acid.

SMILES | Latency of animal to remove itself from the hotplate seconds ± STDerr (hot plate latency; 7.5 mg/kg i.p.) [s] | analgesic effect in the hot plate test (in words) (hot plate latency) | Latency of animal to remove itself from the hotplate seconds ± STDerr (hot plate latency; 10 mg/kg i.p.) [s] | analgesic effect in the hot plate test (in words) (hot plate latency; listed as Sumatriptan) | antagonism of the analgesic effect of compound 1 in the hot plate test (hot plate latency; sumatriptan 10 mg/kg i.p. with compound 1 0.1 mg/kg i.p., P-value=0.0001, Wilcoxon test) | sedative effects [1] | Latency of animal to remove itself from the hotplate seconds ± STDerr (hot plate latency; 0.1 mg/kg i.p.) [s] | ED50 (hot plate latency; Mus musculus, po, read-out: ED50 hot plate test) [mg/kg] | ED50 [2] [mg/kg]
CN1CC[C@]23c4c5ccc(O)c4O[C@H]2[C@@H](O)C=C[C@H]3[C@H]1C5 [morphine] | 7.8 ± 0.3 | nearly doubles the latency |  |  |  |  |  |  | 
CNS(=O)(=O)Cc1ccc2[nH]cc(CCN(C)C)c2c1 [sumatriptan] |  | inactive | 3.9 ± 0.3 | completely inactive | nearly completely antagonizes; also recorded: nearly completely blocked |  |  |  | 
Nc1cc2cccc(N3CCNCC3)c2oc1=O [Compound 1, 3-amino-8-(1-piperazinyl)-2H-1-benzopyran-2-one] |  |  |  |  |  | devoid of sedative effects | 8.4 ± 0.5 | 3.2 | 1.82
